Where two headings read alike, the source gives them in different places.
Columns and labels:
[1] = test system: intracellular amastigotes of T. cruzi; assay: Activity against intracellular amastigotes in infected Vero cells (Dm28c-Luc, 72 h); assay type: cell-based, Trypanosoma cruzi; details: for IC50 / IC90: Trypanosoma cruzi; for IC50: Vero; for fold drop in activity on moving Cl or Br to the meta position: 3b compared to 3g, 3k compared to 3j; for Intracellular Amastigotes SI: CC50 of Vero cells/IC50 of intracellular amastigote; for IC90: read-out: Trypanocidal Activity Intracellular Amastigotes IC90
Excerpt: (§1) T. cruzi Dm28c clone genetically modified to express luciferase, kindly provided by Dr. Cristina Henriques from Oswaldo Cruz Institute–Fiocruz, was used in the drug assays. Trypomastigotes were harvested from T. cruzi-infected Vero cultures supernatants at 4th days post-infection (dpi) and used in the phenotypic screening assay. For intracellular amastigotes assays, Vero cells (2D and 3D cultures) were infected at a ratio of 10:1 parasites/host cells.
The effect of the pyrazole derivatives against intracellular amastigotes was also evaluated after 72 h treatment (37 °C) with compound concentrations ranging from 0.04–100 µM [13]. Parasite viability, measured by luminescent signal, was determined after luciferin (300 µg/mL) addition. IC50 and IC90 values were calculated by linear regression. Selectivity index (SI) was calculated as the ratio of the CC50 to IC50 values. The non-toxic concentration of DMSO (less than 1% v/v) was used in all assays. A minimum of three independent assays was carried out in duplicate.

[2] = test system: trypomastigote forms of T. cruzi; assay: Phenotypic screening against T. cruzi trypomastigotes (Dm28c-Luc, luciferase viability, 24 h); assay type: cell-based, Trypanosoma cruzi; details: Trypanosoma cruzi, Dm28c-Luc, 24 h; for IC50: read-out: Trypanocidal Activity Trypomastigotes IC50
Excerpt: as §1
The phenotypic compound screening was performed using transgenic T. cruzi parasites expressing the firefly luciferase (Dm28c-Luc). Trypomastigotes (1 × 10^6 parasites/well) were treated for 24 h at 37 °C with the pyrazole derivatives and Bz (0.04–100 μM), followed by incubation with luciferin substrate (300 µg/mL) to determine parasite viability through luciferase activity. The concentration that reduces the number of viable parasites by 50% (IC50) or 90% (IC90) was calculated by linear regression. The luminescent signal was read on a Glomax-Multi Detection plate reader (Promega Corporation, Madison, WI, EUA)). At least three independent assays were performed in duplicate.

[3] = Cytotoxicity in vitro assay (ATP, CellTiter Glo, 72 h); assay type: cell-based; details: African green monkey, Vero cells
Procedure: Vero cells, obtained from the Rio de Janeiro Cell Bank (BCRJ code 0245), were cultured in RPMI-1640 supplemented with 10% fetal bovine serum (FBS) and 1 mM L-glutamine, as previously described. Vero cells were used for drug screening assays and to obtain trypomastigote forms of T. cruzi.
Vero cells were used as a cellular model to analyze the toxic effect of pyrazole derivatives, series 1(a–l), 2(a–l), 3(a–n), 4(a–c), and 5(a–c), and Benznidazole (Bz) on mammalian cells. Briefly, the cells, plated on 96-well white opaque microplate (1.5 × 10^4 cells/well), were treated for 72 h at 37 °C with a wide range concentration (500–1.95 µM) of the pyrazole derivatives. The cell viability was determined by measuring ATP levels using the CellTiter Glo Kit (Promega Corporation, Madison, WI, EUA) followed by reading the luminescent signal on the Glomax-Multi Detection plate reader (Promega Corporation, Madison, WI, EUA)). All treatments and controls were performed at a low concentration of DMSO (≤1%). The 50% cytotoxic concentration values (CC50; the concentration of the compound that reduces 50% of the cell viability) were estimated by linear regression analysis. Three independent assays were performed in duplicate.

[4] = negative log of the IC50 value in molar, read-out: Intracellular Amastigotes pIC50 (converted)
[5] = 72 h, Vero cells infected with Dm28c-Luc, 72 h, read-out: Trypanocidal Activity Intracellular Amastigotes IC50
[6] = Vero cells infected with Dm28c-Luc, 72 h

NC(=O)c1cnn(-c2ccc(Cl)c(Cl)c2)c1 [Compound 1e, 1-(3,4-dichlorophenyl)-1H-pyrazole-4-carboxamide]
IC50 [1, 4]: > 50.1 µM | melting point: 190 to 192 °C

Clc1cccc(-n2cc(C3=NCCN3)cn2)c1 [Compound 3b, 1-(3-chlorophenyl)-4-(4,5-dihydro-1H-imidazol-2-yl)-1H-pyrazole]
IC50 [2]: > 100 µM | fold drop in activity on moving Cl or Br to the meta position [1]: five | Intracellular Amastigotes SI [1]: 9.48 | IC50 [1, 5]: 28.2 ± 1.81 µM | IC50 [1, 4]: 28.2 µM | IC90 [1, 6]: 86.6 ± 5.55 µM | CC50 at 72 h [3]: 267 ± 28.1 µM | melting point: 120 to 124 °C

c1ccc(-n2cc(C3=NCCN3)cn2)cc1 [Compound 3a, 4-(4,5-dihydro-1H-imidazol-2-yl)-1-phenyl-1H-pyrazole]
IC50 [2]: > 100 µM | Intracellular Amastigotes SI [1]: >5.44 | IC50 [1, 5]: 91.8 ± 2.03 µM | IC50 [1, 4]: 93.3 µM | IC90 [1, 6]: > 100 µM | CC50 at 72 h [3]: > 500 µM | melting point: 149 to 150 °C

COc1ccc(-n2cc(C3=NCCN3)cn2)cc1 [Compound 3l, 4-(4,5-dihydro-1H-imidazol-2-yl)-1-(4-methoxyphenyl)-1H-pyrazole]
IC50 [2]: > 100 µM | Intracellular Amastigotes SI [1]: >7 | IC50 [1, 5]: 71.8 ± 2.71 µM | IC50 [1, 4]: 72.4 µM | IC90 [1, 6]: > 100 µM | CC50 at 72 h [3]: > 500 µM | melting point: 196 to 197 °C

CC1CN=C(c2cnn(-c3cc(Cl)cc(Cl)c3)c2N)N1 (centres unmarked) [Compound 5b, 5-amino-1-(3,5-dichlorophenyl)-4-(4-(5)-methyl-4,5-dihydro-1H-imidazol-2-yl)-1H-pyrazole]
IC50 [2]: > 100 µM | IC90 ([2]; read-out: Trypanocidal Activity Trypomastigotes IC90): > 100 µM | Intracellular Amastigotes SI [1]: >15.17 | IC50 [1, 5]: 33 ± 8.84 µM | IC50 [1, 4]: 33.1 µM | IC90 [1, 6]: > 100 µM | CC50 at 72 h [3]: > 500 µM | melting point: 189 to 192 °C

Brc1cccc(-n2cc(C3=NCCN3)cn2)c1 [Compound 3k, 1-(3-bromophenyl)-4-(4,5-dihydro-1H-imidazol-2-yl)-1H-pyrazole]
IC50 [2]: > 100 µM | fold drop in activity on moving Cl or Br to the meta position [1]: 10 fold | Intracellular Amastigotes SI [1]: 7.84 | IC50 [1, 5]: 26.9 ± 2.19 µM | IC50 [1, 4]: 26.9 µM | IC90 [1, 6]: 72.9 ± 3.67 µM | CC50 at 72 h [3]: 211 ± 31.7 µM | melting point: 116 to 120 °C

Cc1cc(Cl)ccc1-n1cc(C2=NCCN2)cn1 [Compound 3n, 1-(4-chloro-2-methylphenyl)-4-(4,5-dihydro-1H-imidazol-2-yl)-1H-pyrazole]
IC50 [2]: > 100 µM | Intracellular Amastigotes SI [1]: 13.86 | IC50 [1, 5]: 24.7 ± 3.42 µM | IC50 [1, 4]: 24.5 µM | IC90 [1, 6]: 85.7 ± 5.03 µM | CC50 at 72 h [3]: 342 ± 30 µM | melting point: 174 to 176 °C

NC(=O)c1cnn(-c2ccc(Cl)c(Cl)c2)c1N [Compound 2e, 5-amino-1-(3,4-dichlorophenyl)-1H-pyrazole-4-carboxamide]
IC50 [1, 4]: > 70.8 µM | melting point: 204 to 212 °C

Clc1ccc(-n2cc(C3=NCCN3)cn2)c(Cl)c1 [Compound 3c, 1-(2,4-dichlorophenyl)-4-(4,5-dihydro-1H-imidazol-2-yl)-1H-pyrazole]
IC50 [2]: > 100 µM | Intracellular Amastigotes SI [1]: 7.21 | IC50 [1, 5]: 56.6 ± 2.52 µM | IC50 [1, 4]: 56.2 µM | IC90 [1, 6]: 94.6 ± 3.61 µM | CC50 at 72 h [3]: 409 ± 16.2 µM | melting point: 110 to 111 °C

NC(=O)c1cnn(-c2ccc(Cl)cc2)c1 [Compound 1f, 1-(4-chlorophenyl)-1H-pyrazole-4-carboxamide]
IC50 [1, 4]: > 50.1 µM | melting point: 234 to 236 °C

NC(=O)c1cnn(-c2cccc(Cl)c2Cl)c1 [Compound 1l, 1-(2,3-dichlorophenyl)-1H-pyrazole-4-carboxamide]
IC50 [1, 4]: > 50.1 µM | melting point: 220 to 224 °C

NC(=O)c1cnn(-c2cccc(F)c2)c1N [Compound 2h, 5-amino-1-(3-fluorophenyl)-1H-pyrazole-4-carboxamide]
IC50 [1, 4]: > 70.8 µM | melting point: 178 to 182 °C

NC(=O)c1cnn(-c2cccc(F)c2)c1 [Compound 1h, 1-(3-fluorophenyl)-1H-pyrazole-4-carboxamide]
IC50 [1, 4]: > 50.1 µM | melting point: 206 to 208 °C

NC(=O)c1cnn(-c2ccc(Cl)cc2Cl)c1N [Compound 2c, 5-amino-1-(2,4-dichlorophenyl)-1H-pyrazole-4-carboxamide]
IC50 [1, 4]: > 70.8 µM | melting point: 212 to 214 °C

NC(=O)c1cnn(-c2cc(Cl)cc(Cl)c2)c1 [Compound 1d, 1-(3,5-dichlorophenyl)-1H-pyrazole-4-carboxamide]
IC50 [1, 4]: > 50.1 µM | melting point: 240 to 242 °C

NC(=O)c1cnn(-c2cccc(Br)c2)c1 [Compound 1j, 1-(3-bromophenyl)-1H-pyrazole-4-carboxamide]
IC50 [1, 4]: > 50.1 µM | melting point: 212 to 214 °C

NC(=O)c1cnn(-c2ccc(Br)cc2)c1 [Compound 1i, 1-(4-bromophenyl)-1H-pyrazole-4-carboxamide]
IC50 [1, 4]: > 50.1 µM | melting point: 242 to 244 °C

NC(=O)c1cnn(-c2ccccc2)c1 [Compound 1a, 1-phenyl-1H-pyrazole-4-carboxamide]
IC50 [1, 4]: > 50.1 µM | melting point: 224 to 225 °C

COc1ccc(-n2cc(C(N)=O)cn2)cc1 [Compound 1k, 1-(4-methoxyphenyl)-1H-pyrazole-4-carboxamide]
IC50 [1, 4]: > 50.1 µM | melting point: 220 to 222 °C

NC(=O)c1cnn(-c2cccc(Cl)c2)c1N [Compound 2b, 5-amino-1-(3-chlorophenyl)-1H-pyrazole-4-carboxamide]
IC50 [1, 4]: > 70.8 µM | melting point: 168 to 170 °C

NC(=O)c1cnn(-c2ccc(F)cc2)c1N [Compound 2g, 5-amino-1-(4-fluorophenyl)-1H-pyrazole-4-carboxamide]
IC50 [1, 4]: > 70.8 µM | melting point: 232 to 234 °C

NC(=O)c1cnn(-c2ccc(Cl)cc2)c1N [Compound 2f, 5-amino-1-(4-chlorophenyl)-1H-pyrazole-4-carboxamide]
IC50 [1, 4]: > 70.8 µM | melting point: 196 to 200 °C

NC(=O)c1cnn(-c2cccc(Br)c2)c1N [Compound 2j, 5-amino-1-(3-bromophenyl)-1H-pyrazole-4-carboxamide]
IC50 [1, 4]: > 70.8 µM | melting point: 138 to 142 °C

NC(=O)c1cnn(-c2ccc(Br)cc2)c1N [Compound 2i, 5-amino-1-(4-bromophenyl)-1H-pyrazole-4-carboxamide]
IC50 [1, 4]: > 70.8 µM | melting point: 138 to 142 °C

NC(=O)c1cnn(-c2cc(Cl)cc(Cl)c2)c1N [Compound 2d, 5-amino-1-(3,5-dichlorophenyl)-1H-pyrazole-4-carboxamide]
IC50 [1, 4]: > 70.8 µM | melting point: 184 to 186 °C

COc1ccc(-n2ncc(C(N)=O)c2N)cc1 [Compound 2k, 5-amino-1-(4-methoxyphenyl)-1H-pyrazole-4-carboxamide]
IC50 [1, 4]: > 70.8 µM | melting point: 214 to 218 °C

NC(=O)c1cnn(-c2cccc(Cl)c2Cl)c1N [Compound 2l, 5-amino-1-(2,3-dichlorophenyl)-1H-pyrazole-4-carboxamide]
IC50 [1, 4]: > 70.8 µM | melting point: 160 to 164 °C

NC(=O)c1cnn(-c2ccc(F)cc2)c1 [Compound 1g, 1-(4-fluorophenyl)-1H-pyrazole-4-carboxamide]
IC50 [1, 4]: > 50.1 µM | melting point: 244 to 246 °C

NC(=O)c1cnn(-c2cccc(Cl)c2)c1 [Compound 1b, 1-(3-chlorophenyl)-1H-pyrazole-4-carboxamide]
IC50 [1, 4]: > 50.1 µM | melting point: 202 to 204 °C

NC(=O)c1cnn(-c2ccc(Cl)cc2Cl)c1 [Compound 1c, 1-(2,4-dichlorophenyl)-1H-pyrazole-4-carboxamide]
IC50 [1, 4]: > 50.1 µM | melting point: 184 to 186 °C

— PMC8587750, “Structural Optimization and Biological Activity of Pyrazole Derivatives: Virtual Computational Analysis, Recovery Assay and 3D Culture Model as Potential Predictive Tools of Effectiveness against Trypanosoma cruzi” (Molecules, 2021)
